The data set is described as follows: Metabolic stability in human microsomes. It counts as in vitro ADME. As to conditions: microsomal stability, Table 1, read-out: Half-Life. The source says:
We then tested the metabolic stability of these molecules using human microsomes. […] This could explain the lower potency of this compound in cell growth assays, as it is metabolized quickly in the media.

Structures are written as SMILES.

As usually defined, the half-life is the time needed for the level to fall by half in the phase considered.

Regarding `CNC(=O)c1ccc(N2C(=S)N(c3ccc(C#N)c(C(F)(F)F)c3)C(=O)C2(C)C)cc1F` [Enzalutamide, reference compound], the half-life is more than 16.7 h.

For the origin of these results see article PMC7958344, “Development of Novel Inhibitors Targeting the D-Box of the DNA Binding Domain of Androgen Receptor” (International Journal of Molecular Sciences, 2021).
